Read-outs that look alike come from different tables or passages of the source.

Consider three molecules from article PMC12191924, “A new naphthalene-based fluorogenic substrate for cytochrome P450 4A11” (Biochemical Journal, 2025).

One data set deals with T1, CYP4A11 (Homo sapiens, UniProt Q02928).
T1 sequence (Q02928 5-519): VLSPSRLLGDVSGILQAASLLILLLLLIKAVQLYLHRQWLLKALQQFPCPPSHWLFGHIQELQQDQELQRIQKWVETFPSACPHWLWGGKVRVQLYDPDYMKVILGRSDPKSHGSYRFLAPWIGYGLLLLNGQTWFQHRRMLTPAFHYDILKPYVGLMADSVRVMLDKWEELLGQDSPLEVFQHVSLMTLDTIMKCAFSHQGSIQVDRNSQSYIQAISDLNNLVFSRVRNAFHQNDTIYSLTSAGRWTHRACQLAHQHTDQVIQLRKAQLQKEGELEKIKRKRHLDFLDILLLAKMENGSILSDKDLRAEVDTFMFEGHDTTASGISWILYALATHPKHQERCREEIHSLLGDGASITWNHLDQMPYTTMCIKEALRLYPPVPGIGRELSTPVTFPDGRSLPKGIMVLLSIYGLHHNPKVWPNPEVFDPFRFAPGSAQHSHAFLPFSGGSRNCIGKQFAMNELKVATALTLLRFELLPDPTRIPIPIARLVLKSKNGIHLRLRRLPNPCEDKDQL
Briefly: Inhibition of MONACRA demethylation by recombinant CYP4A11. Particulars: recombinant CYP4A11 Supersomes; 150 µM MONACRA. Also noted: purchased Gentest (Huntsville, AL), now a part of Discovery Life Sciences lot 2402280; host or cells: insect cells, recombinant baculovirus. The format is biochemical. The text has this:
(§1) To probe the role of CYP4A11 and CYP1A2 in MONACRA metabolism by HLM, we employed inhibitory analysis with the use of epalrestat as a specific inhibitor of CYP4A11 [22] and fluvoxamine as a CYP1A2 inhibitor [37]. We explored the effect of the inhibitors on the activity of recombinant CYP1A2 and CYP4A11, as well as the activity of six different preparations of HLM (preparation X347 was not available at the time of the study).
(§2) Figure 12: Effect of epalrestat (A) and fluvoxamine (B) on 3-(6-methoxynaphthalen-2-yl)acrylic acid (MONACRA) demethylation by recombinant CYP1A2 (black) and CYP4A11 (red) and three pooled human liver microsome (HLM) preparations: X263 (green), DNJ (blue), and WGP (brown). Solid lines represent the approximation of the datasets by eqn 1 (in the instances of pure inhibition) or a combination of two hyperbolic equations (in the cases of activation or combined inhibition and activation). All experiments were carried out at 150 µM MONACRA concentration. The datasets shown in the graphs represent the averages of the results of four (fluvoxamine) or two (epalrestat) individual experiments.
Inhibition of MONACRA metabolism by epalrestat and fluvoxamine was studied using the high-throughput assay described above. The substrate concentration was kept constant at 150 µM. Each column of the well plate comprised eight wells with different concentrations of inhibitor complemented with two wells with no inhibitor added (100% activity samples) and two wells with no inhibitor and no NADPH added (‘blank’ samples). […] The resulting dependence of the fractional inhibition on the inhibitor concentration was fitted to a four-parameter logistic equation (Hill equation):
(§3) (1) FI=v0−vi/v0=Amax[I]^N/IC50+[I]^N
IC 50 is the concentration of inhibitor at which the inhibition reaches 50% of its maximal amplitude (A max), and N is the Hill coefficient.

Data set [1] concerns the target T2, pooled human liver microsome (HLM) preparations (Homo sapiens, UniProt Q02928).
T2 sequence (Q02928 5-519): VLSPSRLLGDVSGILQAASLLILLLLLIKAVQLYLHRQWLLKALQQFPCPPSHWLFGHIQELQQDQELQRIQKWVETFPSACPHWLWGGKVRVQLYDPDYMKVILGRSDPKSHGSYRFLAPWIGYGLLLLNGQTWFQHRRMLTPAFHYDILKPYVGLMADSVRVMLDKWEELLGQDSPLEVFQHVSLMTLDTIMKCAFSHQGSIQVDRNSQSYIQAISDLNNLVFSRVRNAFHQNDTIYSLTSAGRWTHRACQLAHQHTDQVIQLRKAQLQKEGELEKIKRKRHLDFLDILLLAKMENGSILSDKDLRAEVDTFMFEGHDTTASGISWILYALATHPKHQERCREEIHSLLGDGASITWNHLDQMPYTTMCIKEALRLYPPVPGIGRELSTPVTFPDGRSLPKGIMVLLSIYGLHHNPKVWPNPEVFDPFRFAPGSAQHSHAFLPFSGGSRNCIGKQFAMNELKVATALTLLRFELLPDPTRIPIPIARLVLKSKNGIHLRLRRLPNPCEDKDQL
Put plainly: Inhibition of MONACRA demethylation in pooled HLM preparations. The data set is classed as biochemical. Particulars: 150 µM MONACRA.
From the text: as §1, §2
This study used preparations of pooled HLMs from 50, 150, or 200 donors (mixed gender). The preparations CDN, DNJ, and WGP were INVITROCYP 150-Donor Human Liver Microsomes obtained from BioIVT Corporation (Westbury, NY). Lot EGW is INVITROCYP M-Class 50-Donor HLM procured from the same company. Lots 1,910,096 and 1,210,347 were XTreme 200 Mixed Gender HLM (200 donors) purchased from XenoTech LLC (Kansas City, KS), currently a part of BioIVT. Lot 2,110,263 corresponds to mixed gender HLM from 50 donors from the same company. These lots are referred to herein as X096, X347, and X263, respectively. The supplier of the HLM preparations used in our studies, BioIVT Corporation, has declared to adhere to the regulations of the Department of Health and Human Services for the protection of human subjects (45 CFR §46.116 and §46.117) and Good Clinical Practice, (ICH E6) in obtaining the samples of human tissues used for producing the preparations of human subcellular fractions available from these companies.
Inhibition of MONACRA metabolism by epalrestat and fluvoxamine was studied using the high-throughput assay described above. The substrate concentration was kept constant at 150 µM. Each column of the well plate comprised eight wells with different concentrations of inhibitor complemented with two wells with no inhibitor added (100% activity samples) and two wells with no inhibitor and no NADPH added (‘blank’ samples). […] The fractional inhibition at each inhibitor concentration was determined from the ratio of the reaction rate in the presence of an inhibitor to the rate observed at no inhibitor added. The resulting dependence of the fractional inhibition on the inhibitor concentration was fitted to a four-parameter logistic equation (Hill equation):
as §3
In this equation, F I and vi are the fractional inhibition and the reaction velocity observed at inhibitor concentration [I], v0 is the reaction rate at no inhibitor added, and A max is the maximal amplitude of inhibition. IC 50 is the concentration of inhibitor at which the inhibition reaches 50% of its maximal amplitude (A max), and N is the Hill coefficient.

Substrate in data set [2]: COc1ccc2cc(C=CC(=O)O)ccc2c1
Put plainly: MONACRA demethylation by recombinant CYP4A11 in Supersomes, high-throughput fluorimetric assay. The format is biochemical, human. Particulars: other: CYP4A11 Supersomes, Michaelis–Menten fit, 20 min at 30°C, ± = confidence interval P=0.05. Here is the method:
Based on these observations, we developed a high-throughput automated assay applicable for studying SSPs of MONACRA metabolism by microsomal P450 enzymes. In this procedure, the incubation mixtures containing an NADPH-generating system and various substrate concentrations are placed in a multiwell plate and preincubated at 30°C in a thermostated shaker. The reaction is started by adding microsomal suspension to the final concentration of 0.3–1 mg/ml of microsomal protein or 0.02–0.1 µM of recombinant P450 enzymes in Supersomes. Following the incubation for 20 min at 30°C, the reaction is quenched by adding trichloroacetic acid (final concentration […]). After supplementing the wells with Na-glycine buffer (pH 10.4, final concentration 2.1 M), the plates are subjected to scanning the fluorescence spectra with excitation at 375 nm. This assay, which is described in detail in Materials and Methods, allows reliable detection of the concentrations of HONACRA as low as 0.1 µM.
We used the high-throughput activity assay described above to probe MONACRA metabolism by 16 human microsomal P450 enzymes, namely CYP1A2, CYP2A6, CYP2B6, CYP2C8, CYP2C9, CYP2C19, CYP2D6, CYP2E1, CYP2J2, CYP3A4, CYP3A5, CYP4A11, CYP4F2, CYP4F3A, CYP4F3B, and CYP4F12. […]

[3] abbreviates: all studied HLM samples (six preparations).

Turning to `CC(/C=C1\SC(=S)N(CC(=O)O)C1=O)=C\c1ccccc1` [epalrestat], the IC50 stood at 1300 nM at CYP4A11; 1.48 ± 0.21 µM in data set [1] (HLM sample CDN, unit not given (µM)); 2.02 ± 1.7 µM in data set [1] (HLM sample DNJ, unit not given (µM)); 2.15 ± 0.52 µM in data set [1] (HLM sample EGW, unit not given (µM)); 2.14 ± 0.94 µM in data set [1] (HLM sample WGP, unit not given (µM)); 5.36 ± 0.13 µM in data set [1] (HLM sample X096, unit not given (µM)). Further, the IC50 in data set [1] (HLM sample X263, unit not given (µM)) stood at 5.09 ± 1.04 µM; in data set [1] (setting [3]), 3 ± 1.4 µM. The “effect on MONACRA demethylation by CYP4A11” value at CYP4A11 is given as “complete inhibition”. The “Inhibition (amplitude)” value is listed as 99.7±0.6% in data set [1] (HLM sample CDN); 93.0±2.3% in data set [1] (HLM sample DNJ); 99.8±0.4% in data set [1] (HLM sample EGW); 97.1±5.7% in data set [1] (HLM sample WGP); 93.9±0.7% in data set [1] (HLM sample X096); 100.0% in data set [1] (HLM sample X263). Also, in data set [1] (setting [3]), the amplitude of inhibition is on record as 97.2±2.5.

For the molecule `COCCCC/C(=N\OCCN)c1ccc(C(F)(F)F)cc1` [fluvoxamine], the “effect on MONACRA demethylation by CYP4A11” value on CYP4A11 is reported as “pronounced activation”. In addition, in data set [1] (HLM preparation DNJ), the amplitude of inhibition is 69%. In data set [1] (HLM preparation DNJ, read-out: IC 50), the IC50 came to 14 µM. Also, the “effect on MONACRA metabolism in HLM” value in data set [1] (HLM preparations CDN, WGP and X096) was “combination of an inhibitory effect at lower concentrations with an activation that manifests itself as the concentration increases”; in data set [1] (HLM preparations EGW and X263), “activation similar to that observed in CYP4A11 Supersomes”.

B1: CYP4A11 (Homo sapiens) (protein)
chain: VLSPSRLLGDVSGILQAASLLILLLLLIKAVQLYLHRQWLLKALQQFPCPPSHWLFGHIQELQQDQELQRIQKWVETFPSACPHWLWGGKVRVQLYDPDYMKVILGRSDPKSHGSYRFLAPWIGYGLLLLNGQTWFQHRRMLTPAFHYDILKPYVGLMADSVRVMLDKWEELLGQDSPLEVFQHVSLMTLDTIMKCAFSHQGSIQVDRNSQSYIQAISDLNNLVFSRVRNAFHQNDTIYSLTSAGRWTHRACQLAHQHTDQVIQLRKAQLQKEGELEKIKRKRHLDFLDILLLAKMENGSILSDKDLRAEVDTFMFEGHDTTASGISWILYALATHPKHQERCREEIHSLLGDGASITWNHLDQMPYTTMCIKEALRLYPPVPGIGRELSTPVTFPDGRSLPKGIMVLLSIYGLHHNPKVWPNPEVFDPFRFAPGSAQHSHAFLPFSGGSRNCIGKQFAMNELKVATALTLLRFELLPDPTRIPIPIARLVLKSKNGIHLRLRRLPNPCEDKDQL
notes: purchased Gentest (Huntsville, AL), now a part of Discovery Life Sciences lot 2402280; host or cells: insect cells, recombinant baculovirus
In the case of B1, in data set [2], the Km came out at 189 ± 37 µM and the kcat is 1.12 ± 0.3 s⁻¹.
